Key:
Format in all cases: cell-based, human
[1] = system: PC-3 spheroids; assay: PC-3 spheroid assay
Source text: FIG. 18 is a graph illustrating the size of PC-3 spheroids over time.
FIG. 19 is a graph illustrating the size of PC-3 spheroids over time.

[2] = system: HNSCC cell lines (Cal27 trio, Cal33 trio); assay: NK cell CD107a / IFN-γ flow cytometry against HNSCC lines
Experimental: FIGS. 27A-27D illustrate the functional validation of B7-H3 TriKE. FIG. 27A is a graph illustrating CD107a expression in PBMCs from healthy donors incubated with Cal27 trio. FIG. 27B is a graph illustrating intracellular IFN-γ production in PBMCs from healthy donors incubated with Cal27 trio. FIG. 27C is a graph illustrating CD107a expression in PBMCs from healthy donors incubated with Cal33 trio. FIG. 27D is a graph illustrating intracellular IFN-γ production in PBMCs from healthy donors incubated with Cal33 trio.
NK cell responses against HNSCC lines in the presence of the B7-H3 TriKE were assessed through either flow cytometry based functional assays, to evaluate NK cell degranulation and cytokine secretion, or IncuCyte imaging assays, to directly assess target killing. NK cell degranulation and IFN-gamma production of B7-H3 TriKE-treated samples were higher compared to that of control samples treated with B7-H3 single domain or IL-15 alone. […] Ongoing experiments will evaluate the functionality and efficacy of the B7-H3 TriKE in vivo.
Frozen PBMCs (N=3) from healthy donors were incubated for 5 hours with (A-B) Cal27 trio and […] Cal33 trio (each trio consisting of a HNSCC WT line and 2 clones of HNSCC FANCA KO lines) in different treatments: no treatment or 3 nM IL-15, MOPC, B7-H3 SD and B7-H3TriKE to evaluate CD107a expression (as a marker for degranulation) and intracellular IFN-γ production. Error bars indicate standard error of mean, and statistical significance was determined as *p<0.05, **p<0.01, ***p<0.001 and ****p<0.0001

[3] = system: DU145 prostate cancer cells; assay: NK cell CD107a / IFNγ flow cytometry against DU145; conditions: normal donor and prostate cancer patient NK cells, vs controls
Source text: FIG. 15A is a graph showing pooled analysis of proportion of NK cells from healthy donors or prostate cancer patients expressing CD107a+ (top) or IFNγ (bottom) against C4-2 targets (N=9 for healthy donors, N=3 for patients). FIG. 15B is a graph showing pooled analysis of proportion of NK cells from healthy donors or prostate cancer patients expressing CD107a+ (top) or IFNγ (bottom) against DU145 targets (N=9 for healthy donors, N=3 for patients). FIG. 15C is a graph showing pooled analysis of proportion of NK cells from healthy donors or prostate cancer patients expressing CD107a+ (top) or IFNγ (bottom) against LNCaP targets (N=9 for healthy donors, N=3 for patients). FIG. 15D is a graph showing pooled analysis of proportion of NK cells from healthy donors or prostate cancer patients expressing CD107a+ (top) or IFNγ (bottom) against PC3 targets (N=9 for healthy donors, N=3 for patients). * p<0.05, ** p<0.01, *** p<0.001, and **** p<0.0001.
ADCC was measured in a flow cytometry assay by evaluating degranulation via CD107a (lysosomal-associated membrane protein LAMP-1) and intracellular IFNγ production. Upon thawing, normal donor and patient-derived PBMCs or ascites cells were rested overnight (37° C., 5% CO2) in RPMI 1640 media supplemented with 10% fetal calf serum (RPMI-10). […] Samples were washed and evaluated in an LSRII flow cytometer (BD Biosciences, San Jose, CA, USA). […]

[4] = vs B7-H3 single domain or IL-15 alone

Substance	PC-3 spheroid size over time [1]	killing of PC3 spheroids ([1]; photographs, FIG. 20)	NK cell activity (CD107a, IFN-γ) against HNSCC ([2]; 3 nM, 5 hours, Cal27 trio and Cal33 trio, healthy donor PBMCs)	NK cell IFN-gamma production against HNSCC [2, 4]	NK cell degranulation against HNSCC [2, 4]	NK cell IFNγ production against DU145 [3]	NK cell degranulation (CD107a) against DU145 [3]
B7-H3 TriKE: camelid nanobodies targeting CD16 and B7-H3 joined by IL-15 and two linkers; sequence table equates the name with cam1615B7-H3	reduce PC-3 spheroid size over time	efficient killing of PC3 spheroids	induced NK cell activity against HNSCC	higher	higher	–	–
cam1615B7-H3: second-generation TriKE: humanized camelid anti-CD16 VHH, human wild-type IL-15, anti-B7-H3 mAb 376.96 scFv; SEQ ID NO:1	–	–	–	–	–	enhanced	enhanced
